We go through 25 compounds from article PMC7782168, “Synthesis, telomerase inhibitory and anticancer activity of new 2-phenyl-4H-chromone derivatives containing 1,3,4-oxadiazole moiety” (Journal of Enzyme Inhibition and Medicinal Chemistry, 2020).

One data set has as its target T1, telomerase (Homo sapiens, UniProt O14746).
T1 construct: assayed for telomerase activity using MGC-803 cells extract; endogenous in cells; host or cells: MGC-803 cell extract
In words: Telomerase activity assay using MGC-803 cells extract. Type of data set: biochemical. To be noted: mean ± SD.

T1 sequence (O14746 whole entry): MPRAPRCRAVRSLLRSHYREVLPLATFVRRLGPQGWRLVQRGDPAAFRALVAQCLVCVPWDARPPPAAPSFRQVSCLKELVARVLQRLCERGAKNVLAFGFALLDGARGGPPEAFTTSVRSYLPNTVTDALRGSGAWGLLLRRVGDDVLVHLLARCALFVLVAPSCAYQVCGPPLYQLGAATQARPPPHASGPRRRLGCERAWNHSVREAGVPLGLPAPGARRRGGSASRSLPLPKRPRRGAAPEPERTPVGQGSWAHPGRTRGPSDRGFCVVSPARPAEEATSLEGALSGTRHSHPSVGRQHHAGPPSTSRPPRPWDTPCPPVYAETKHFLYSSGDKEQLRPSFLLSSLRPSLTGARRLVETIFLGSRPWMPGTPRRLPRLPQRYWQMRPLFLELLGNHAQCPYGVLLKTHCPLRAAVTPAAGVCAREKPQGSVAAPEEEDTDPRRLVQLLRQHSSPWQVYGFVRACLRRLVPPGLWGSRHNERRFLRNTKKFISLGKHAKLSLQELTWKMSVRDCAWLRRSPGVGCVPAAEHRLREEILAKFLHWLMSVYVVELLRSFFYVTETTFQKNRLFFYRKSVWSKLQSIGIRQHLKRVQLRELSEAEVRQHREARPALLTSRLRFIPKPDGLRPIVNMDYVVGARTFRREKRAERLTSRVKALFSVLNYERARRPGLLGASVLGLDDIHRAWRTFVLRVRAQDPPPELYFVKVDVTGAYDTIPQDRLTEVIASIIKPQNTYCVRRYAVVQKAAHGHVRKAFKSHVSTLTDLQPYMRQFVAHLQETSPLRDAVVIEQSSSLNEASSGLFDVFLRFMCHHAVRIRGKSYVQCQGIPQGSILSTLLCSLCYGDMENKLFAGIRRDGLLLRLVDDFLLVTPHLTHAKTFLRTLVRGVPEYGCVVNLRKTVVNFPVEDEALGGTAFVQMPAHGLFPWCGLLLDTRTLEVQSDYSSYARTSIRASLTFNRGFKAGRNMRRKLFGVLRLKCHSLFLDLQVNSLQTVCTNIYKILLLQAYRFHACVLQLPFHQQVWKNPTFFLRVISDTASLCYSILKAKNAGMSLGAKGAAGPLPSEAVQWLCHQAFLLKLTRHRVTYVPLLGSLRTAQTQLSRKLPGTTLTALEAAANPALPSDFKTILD
T1 sequence (O60832 2-514 partner limits assumed): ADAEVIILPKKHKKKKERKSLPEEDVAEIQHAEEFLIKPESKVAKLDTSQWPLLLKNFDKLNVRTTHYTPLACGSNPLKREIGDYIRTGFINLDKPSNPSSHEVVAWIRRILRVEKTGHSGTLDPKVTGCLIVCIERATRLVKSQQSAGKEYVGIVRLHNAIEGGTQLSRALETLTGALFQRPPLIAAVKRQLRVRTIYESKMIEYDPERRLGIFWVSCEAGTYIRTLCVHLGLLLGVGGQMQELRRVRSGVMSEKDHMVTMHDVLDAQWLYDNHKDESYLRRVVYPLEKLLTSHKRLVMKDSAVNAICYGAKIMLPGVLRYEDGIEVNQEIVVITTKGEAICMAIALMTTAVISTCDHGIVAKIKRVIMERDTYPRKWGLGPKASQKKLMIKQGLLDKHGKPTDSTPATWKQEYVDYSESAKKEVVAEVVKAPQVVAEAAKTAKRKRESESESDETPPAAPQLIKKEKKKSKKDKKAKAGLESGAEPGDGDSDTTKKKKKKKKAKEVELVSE
T1 sequence (Q9NPE3 whole entry partner): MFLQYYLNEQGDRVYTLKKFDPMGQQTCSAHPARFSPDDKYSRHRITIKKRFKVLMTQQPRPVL
T1 sequence (Q9NX24 whole entry partner): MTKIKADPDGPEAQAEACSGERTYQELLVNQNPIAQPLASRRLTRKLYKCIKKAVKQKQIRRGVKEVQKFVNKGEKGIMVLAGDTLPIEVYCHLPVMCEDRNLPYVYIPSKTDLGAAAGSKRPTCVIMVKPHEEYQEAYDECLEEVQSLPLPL
T1 sequence (Q9NY12 whole entry partner): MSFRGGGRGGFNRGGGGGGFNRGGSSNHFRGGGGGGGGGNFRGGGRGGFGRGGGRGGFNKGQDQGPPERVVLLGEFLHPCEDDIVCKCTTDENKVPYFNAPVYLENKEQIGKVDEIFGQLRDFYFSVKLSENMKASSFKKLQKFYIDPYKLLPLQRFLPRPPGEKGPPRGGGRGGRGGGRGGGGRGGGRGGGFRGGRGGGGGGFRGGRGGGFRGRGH

As a reminder, the IC50 is the concentration needed to halve the response being measured. In general, melting point refers to the temperature of the solid-liquid transition. As to `COc1cc(OC)c2c(=O)c(OCC(=O)Nc3nnc(-c4cccc(OCc5ccccc5)c4)o3)c(-c3ccc(OC)c(OC)c3)oc2c1` [B30, N-(5–(3-(benzyloxy)phenyl)-1,3,4-oxadiazol-2-yl)-2–(2-(3,4-dimethoxyphenyl)-5,7-dimethoxy-4-oxo-4H-chromen-3-yloxy)acetamide], the melting point was 156 to 158 °C. The compound further registered an IC50 at telomerase of more than 60 µM.

As for `COc1cc(OC)c2c(=O)c(OCC(=O)Nc3nnc(-c4ccccc4)o3)c(-c3ccc(OC)c(OC)c3)oc2c1` [B1, 2–(2-(3,4-dimethoxyphenyl)-5,7-dimethoxy-4-oxo-4H-chromen-3-yloxy)-N-(5-phenyl-1,3,4-oxadiazol-2-yl)acetamide], the melting point was in the range of 237 to 239 °C. The IC50 against telomerase was more than 60 µM.

Regarding `COc1cc(OC)c2c(=O)c(OCC(=O)Nc3nnc(-c4cccc([N+](=O)[O-])c4)o3)c(-c3cc(OC)c(OC)c(OC)c3)oc2c1` [A14, 2–(5,7-dimethoxy-4-oxo-2–(3,4,5-trimethoxyphenyl)-4H-chromen-3-yloxy)-N-(5–(3-nitrophenyl)-1,3,4-oxadiazol-2-yl)acetamide], the melting point is 233 to 235 °C. The IC50 against telomerase is 4.11 ± 0.6 µM.

Consider `COc1cc(OC)c2c(=O)c(OCC(=O)Nc3nnc(-c4ccccc4)o3)c(-c3cc(OC)c(OC)c(OC)c3)oc2c1` [A1, 2–(5,7-dimethoxy-4-oxo-2–(3,4,5-trimethoxyphenyl)-4H-chromen-3-yloxy)-N-(5-phenyl-1,3,4-oxadiazol-2-yl)acetamide], for which the melting point lay in the range of 222 to 224 °C. On telomerase, the IC50 was 21.1 ± 2.28 µM.

On to `COc1cc(OC)c2c(=O)c(OCC(=O)Nc3nnc(-c4ccccc4OC(F)(F)F)o3)c(-c3cc(OC)c(OC)c(OC)c3)oc2c1` [A21, 2–(5,7-dimethoxy-4-oxo-2–(3,4,5-trimethoxyphenyl)-4H-chromen-3-yloxy)-N-(5–(2-(trifluoromethoxy)phenyl)-1,3,4-oxadiazol-2-yl)acetamide], for which the melting point fell in the range of 202 to 204 °C. The compound also gave an IC50 at telomerase of 5.11 ± 1.1 µM.

`COc1cc(OC)c2c(=O)c(OCC(=O)Nc3nnc(-c4cccs4)o3)c(-c3ccc(OC)c(OC)c3)oc2c1` [B32, 2–(2-(3,4-dimethoxyphenyl)-5,7-dimethoxy-4-oxo-4H-chromen-3-yloxy)-N-(5-(thiophen-2-yl)-1,3,4-oxadiazol-2-yl)acetamide] showed a melting point of 238 to 240 °C. Half-maximal inhibition against telomerase (IC50) required 3.75 ± 0.39 µM.

`COc1cc(OC)c2c(=O)c(OCC(=O)Nc3nnc(-c4ccccc4[N+](=O)[O-])o3)c(-c3cc(OC)c(OC)c(OC)c3)oc2c1` [A15, 2–(5,7-dimethoxy-4-oxo-2–(3,4,5-trimethoxyphenyl)-4H-chromen-3-yloxy)-N-(5–(2-nitrophenyl)-1,3,4-oxadiazol-2-yl)acetamide] had a melting point of 204 to 206 °C. On telomerase, this compound displayed an IC50 of 6.98 ± 0.96 µM.

Take `COc1cc(OC)c2c(=O)c(OCC(=O)Nc3nnc(-c4ccccc4Br)o3)c(-c3cc(OC)c(OC)c(OC)c3)oc2c1` [A10, N-(5–(2-bromophenyl)-1,3,4-oxadiazol-2-yl)-2–(5,7-dimethoxy-4-oxo-2–(3,4,5-trimethoxyphenyl)-4H-chromen-3-yloxy)acetamide]: the melting point lay within 199 to 201 °C. Besides, at telomerase, the midpoint of inhibition, the IC50, lay at 21 ± 4.09 µM.

With `COc1cc(OC)c2c(=O)c(OCC(=O)Nc3nnc(-c4ccc(C)cc4)o3)c(-c3cc(OC)c(OC)c(OC)c3)oc2c1` [A11, 2–(5,7-dimethoxy-4-oxo-2–(3,4,5-trimethoxyphenyl)-4H-chromen-3-yloxy)-N-(5-p-tolyl-1,3,4-oxadiazol-2-yl)acetamide], the melting point was in the range of 225 to 227 °C. Also, the IC50 at telomerase came to 2.35 ± 0.48 µM.

In turn, `COc1cc(OC)c2c(=O)c(OCC(=O)Nc3nnc(-c4ccc(OC(F)(F)F)cc4)o3)c(-c3ccc(OC)c(OC)c3)oc2c1` [B19, 2–(2-(3,4-dimethoxyphenyl)-5,7-dimethoxy-4-oxo-4H-chromen-3-yloxy)-N-(5–(4-(trifluoromethoxy)phenyl)-1,3,4-oxadiazol-2-yl)acetamide] came in with a melting point of 217 to 219 °C. Besides, at telomerase, the IC50 came to 1.77 ± 0.6 µM.

As to `COc1cc(OC)c2c(=O)c(OCC(=O)Nc3nnc(-c4cccc(C(F)(F)F)c4)o3)c(-c3cc(OC)c(OC)c(OC)c3)oc2c1` [A17, 2–(5,7-dimethoxy-4-oxo-2–(3,4,5-trimethoxyphenyl)-4H-chromen-3-yloxy)-N-(5–(3-(trifluoromethyl)phenyl)-1,3,4-oxadiazol-2-yl)acetamide], the melting point was 220 to 222 °C. For the same compound, the IC50 against telomerase was 4.11 ± 0.62 µM.

In the case of `COc1cc(OC)c2c(=O)c(OCC(=O)Nc3nnc(-c4cccc(F)c4)o3)c(-c3cc(OC)c(OC)c(OC)c3)oc2c1` [A3, 2–(5,7-dimethoxy-4-oxo-2–(3,4,5-trimethoxyphenyl)-4H-chromen-3-yloxy)-N-(5–(3-fluorophenyl)-1,3,4-oxadiazol-2-yl)acetamide], the melting point lay in the range of 217 to 219 °C. Besides, the concentration for half-maximal inhibition (IC50) against telomerase worked out at 2.57 ± 0.5 µM.

Compound `COc1cc(OC)c2c(=O)c(OCC(=O)Nc3nnc(-c4ccccc4F)o3)c(-c3ccc(OC)c(OC)c3)oc2c1` [B4, 2–(2-(3,4-dimethoxyphenyl)-5,7-dimethoxy-4-oxo-4H-chromen-3-yloxy)-N-(5–(2-fluorophenyl)-1,3,4-oxadiazol-2-yl)acetamide] returned a melting point of 235 to 237 °C. This compound also gave an IC50 against telomerase of 15.3 ± 2.71 µM.

`COc1cc(OC)c2c(=O)c(OCC(=O)Nc3nnc(-c4ccccc4C(F)(F)F)o3)c(-c3cc(OC)c(OC)c(OC)c3)oc2c1` [A18, 2–(5,7-dimethoxy-4-oxo-2–(3,4,5-trimethoxyphenyl)-4H-chromen-3-yloxy)-N-(5–(2-(trifluoromethyl)phenyl)-1,3,4-oxadiazol-2-yl)acetamide]: the melting point was 191 to 193 °C. The compound further had an IC50 against telomerase of 1.07 ± 0.2 µM.

Take `COc1cc(OC)c2c(=O)c(OCC(=O)Nc3nnc(-c4cccc5ccccc45)o3)c(-c3ccc(OC)c(OC)c3)oc2c1` [B28, 2–(2-(3,4-dimethoxyphenyl)-5,7-dimethoxy-4-oxo-4H-chromen-3-yloxy)-N-(5-(naphthalen-1-yl)-1,3,4-oxadiazol-2-yl)acetamide]: the melting point lay in the range of 230 to 232 °C. Moreover, it took 1.19 ± 0.18 µM to reach half-maximal inhibition against telomerase (IC50).

Consider `COc1cc(OC)c2c(=O)c(OCC(=O)Nc3nnc(-c4ccc(F)c(Cl)c4)o3)c(-c3cc(OC)c(OC)c(OC)c3)oc2c1` [A24, N-(5–(3-chloro-4-fluorophenyl)-1,3,4-oxadiazol-2-yl)-2–(5,7-dimethoxy-4-oxo-2–(3,4,5-trimethoxyphenyl)-4H-chromen-3-yloxy)acetamide], for which the melting point is 228 to 230 °C. For the same compound, inhibition against telomerase was half-maximal at 4.01 ± 0.47 µM (IC50).

Compound `COc1cc(OC)c2c(=O)c(OCC(=O)Nc3nnc(-c4cccc(C)c4)o3)c(-c3ccc(OC)c(OC)c3)oc2c1` [B12, 2–(2-(3,4-dimethoxyphenyl)-5,7-dimethoxy-4-oxo-4H-chromen-3-yloxy)-N-(5-m-tolyl-1,3,4-oxadiazol-2-yl)acetamide] returned a melting point of 221 to 223 °C. Moreover, on telomerase, the IC50 was more than 60 µM.

The compound `COc1cc(OC)c2c(=O)c(OCC(=O)Nc3nnc(-c4cccc(C(F)(F)F)c4)o3)c(-c3ccc(OC)c(OC)c3)oc2c1` [B17, 2–(2-(3,4-dimethoxyphenyl)-5,7-dimethoxy-4-oxo-4H-chromen-3-yloxy)-N-(5–(3-(trifluoromethyl)phenyl)-1,3,4-oxadiazol-2-yl)acetamide] displayed a melting point of 195 to 197 °C. In addition, half-maximal inhibition at telomerase (IC50) required 27.6 ± 3.11 µM.

`COc1cc(OC)c2c(=O)c(OCC(=O)Nc3nnc(-c4ccc(F)c(Cl)c4)o3)c(-c3ccc(OC)c(OC)c3)oc2c1` [B24, N-(5–(3-chloro-4-fluorophenyl)-1,3,4-oxadiazol-2-yl)-2–(2-(3,4-dimethoxyphenyl)-5,7-dimethoxy-4-oxo-4H-chromen-3-yloxy)acetamide] returned a melting point of 232 to 234 °C. Further, the IC50 on telomerase stood at 4.17 ± 0.7 µM.

Regarding `COc1cc(OC)c2c(=O)c(OCC(=O)Nc3nnc(-c4ccc5c(c4)OCCO5)o3)c(-c3ccc(OC)c(OC)c3)oc2c1` [B29, N-(5–(2,3-dihydrobenzo[b][1, 4]dioxin-6-yl)-1,3,4-oxadiazol-2-yl)-2–(2-(3,4-dimethoxyphenyl)-5,7-dimethoxy-4-oxo-4H-chromen-3-yloxy)acetamide], the melting point is 228 to 230 °C. The compound further gave an IC50 at telomerase of 2.98 ± 0.27 µM.

As to `COc1cc(OC)c2c(=O)c(OCC(=O)Nc3nnc(-c4ccc5c(c4)OCCO5)o3)c(-c3cc(OC)c(OC)c(OC)c3)oc2c1` [A29, N-(5–(2,3-dihydrobenzo[b][1, 4]dioxin-6-yl)-1,3,4-oxadiazol-2-yl)-2–(5,7-dimethoxy-4-oxo-2–(3,4,5-trimethoxyphenyl)-4H-chromen-3-yloxy)acetamide], the melting point was 231 to 233 °C. This compound gave an IC50 against telomerase of more than 60 µM.

In the case of `COc1cc(OC)c2c(=O)c(OCC(=O)Nc3nnc(-c4ccccc4Cl)o3)c(-c3ccc(OC)c(OC)c3)oc2c1` [B7, N-(5–(2-chlorophenyl)-1,3,4-oxadiazol-2-yl)-2–(2-(3,4-dimethoxyphenyl)-5,7-dimethoxy-4-oxo-4H-chromen-3-yloxy)acetamide], the melting point lay within 221 to 223 °C. At telomerase, 24.3 ± 2.7 µM corresponded to half-maximal inhibition (IC50).

For the compound `COc1cc(OC)c2c(=O)c(OCC(=O)Nc3nnc(-c4ccccc4F)o3)c(-c3cc(OC)c(OC)c(OC)c3)oc2c1` [A4, 2–(5,7-dimethoxy-4-oxo-2–(3,4,5-trimethoxyphenyl)-4H-chromen-3-yloxy)-N-(5–(2-fluorophenyl)-1,3,4-oxadiazol-2-yl)acetamide], the melting point lay within 213 to 215 °C. Besides, the IC50 on telomerase was determined as 12.1 ± 2.01 µM.

In the case of `COc1cc(OC)c2c(=O)c(OCC(=O)Nc3nnc(-c4ccc(F)cc4)o3)c(-c3ccc(OC)c(OC)c3)oc2c1` [B2, 2–(2-(3,4-dimethoxyphenyl)-5,7-dimethoxy-4-oxo-4H-chromen-3-yloxy)-N-(5–(4-fluorophenyl)-1,3,4-oxadiazol-2-yl)acetamide], the melting point was 236 to 238 °C. Besides, the IC50 against telomerase stood at 1.38 ± 0.25 µM.

In the case of `COc1cc(OC)c2c(=O)c(OCC(=O)Nc3nnc(-c4ccc(Br)cc4)o3)c(-c3cc(OC)c(OC)c(OC)c3)oc2c1` [A8, N-(5–(4-bromophenyl)-1,3,4-oxadiazol-2-yl)-2–(5,7-dimethoxy-4-oxo-2–(3,4,5-trimethoxyphenyl)-4H-chromen-3-yloxy)acetamide], the melting point fell in the range of 234 to 236 °C. Further, on telomerase, the IC50 amounted to 1.22 ± 0.29 µM.
